system: MDA-MB-468 multi-cell spheroids, viability; test: Anticancer human tumor MDA-MB-468 cell line growth inhibition [IpAb]; conditions: second compound 0.316 µM; first compound 0.316 µM; hits give low values;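 also: spheroids exposed to agents for seven days; 100% = DMSO vehicle control viability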
Procedure, shortened: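 Multi-cell spheroids of 60% tumour cells, 25% HUVEC and 15% MSC in ultra-low-attachment U-bottom wells, treated with agents combined with ipatasertib or abemaciclib. Half-log ranges top out near clinical Cmax, or 10 microM when Cmax is unknown.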

| Structure (SMILES) | viability, T/C [%] |
| --- | --- |
| C=CC(=O)N1CCN(c2nc(=O)n(-c3c(C)ccnc3C(C)C)c3nc(-c4c(O)cccc4F)c(F)cc23)C(C)C1 (centres undefined) + CCN1CCN(Cc2ccc(Nc3ncc(F)c(-c4cc(F)c5nc(C)n(C(C)C)c5c4)n3)nc2)CC1 | 116 |
| Cn1nccc1Nc1nccc(-c2ccn(C(CO)c3ccc(Cl)c(F)c3)c(=O)c2)n1 (centres undefined) + CCN1CCN(Cc2ccc(Nc3ncc(F)c(-c4cc(F)c5nc(C)n(C(C)C)c5c4)n3)nc2)CC1 | 89.2 |
| C=CCn1c(=O)c2cnc(Nc3ccc(N4CCN(C)CC4)cc3)nc2n1-c1cccc(C(C)(C)O)n1 + CCN1CCN(Cc2ccc(Nc3ncc(F)c(-c4cc(F)c5nc(C)n(C(C)C)c5c4)n3)nc2)CC1 | 89.7 |

same assay, conditions: second compound 0.316 µM; first compound 1 µM; hits give low values

| Structure (SMILES) | viability, T/C [%] |
| --- | --- |
| Cn1ncc(Cl)c1-c1cc(C(=O)NC(CN)Cc2cccc(F)c2)sc1Cl (centres undefined) + CC(C)NCC(C(=O)N1CCN(c2ncnc3c2C(C)CC3O)CC1)c1ccc(Cl)cc1 | 31.8 |
| Cn1nccc1Nc1nccc(-c2ccn(C(CO)c3ccc(Cl)c(F)c3)c(=O)c2)n1 (centres undefined) + CC(C)NCC(C(=O)N1CCN(c2ncnc3c2C(C)CC3O)CC1)c1ccc(Cl)cc1 | 46.3 |
| C=CC(=O)N1CCN(c2nc(=O)n(-c3c(C)ccnc3C(C)C)c3nc(-c4c(O)cccc4F)c(F)cc23)C(C)C1 (centres undefined) + CCN1CCN(Cc2ccc(Nc3ncc(F)c(-c4cc(F)c5nc(C)n(C(C)C)c5c4)n3)nc2)CC1 | 103 |
| Cn1nccc1Nc1nccc(-c2ccn(C(CO)c3ccc(Cl)c(F)c3)c(=O)c2)n1 (centres undefined) + CCN1CCN(Cc2ccc(Nc3ncc(F)c(-c4cc(F)c5nc(C)n(C(C)C)c5c4)n3)nc2)CC1 | 78.7 |
| C=CCn1c(=O)c2cnc(Nc3ccc(N4CCN(C)CC4)cc3)nc2n1-c1cccc(C(C)(C)O)n1 + CCN1CCN(Cc2ccc(Nc3ncc(F)c(-c4cc(F)c5nc(C)n(C(C)C)c5c4)n3)nc2)CC1 | 9.63 |

same assay, conditions: second compound 0.316 µM; first compound 3.16 µM; hits give low values

| Structure (SMILES) | viability, T/C [%] |
| --- | --- |
| Cn1ncc(Cl)c1-c1cc(C(=O)NC(CN)Cc2cccc(F)c2)sc1Cl (centres undefined) + CC(C)NCC(C(=O)N1CCN(c2ncnc3c2C(C)CC3O)CC1)c1ccc(Cl)cc1 | 16.6 |
| Cn1nccc1Nc1nccc(-c2ccn(C(CO)c3ccc(Cl)c(F)c3)c(=O)c2)n1 (centres undefined) + CC(C)NCC(C(=O)N1CCN(c2ncnc3c2C(C)CC3O)CC1)c1ccc(Cl)cc1 | 44.3 |
| C=CC(=O)N1CCN(c2nc(=O)n(-c3c(C)ccnc3C(C)C)c3nc(-c4c(O)cccc4F)c(F)cc23)C(C)C1 (centres undefined) + CCN1CCN(Cc2ccc(Nc3ncc(F)c(-c4cc(F)c5nc(C)n(C(C)C)c5c4)n3)nc2)CC1 | 83.7 |
| Cn1nccc1Nc1nccc(-c2ccn(C(CO)c3ccc(Cl)c(F)c3)c(=O)c2)n1 (centres undefined) + CCN1CCN(Cc2ccc(Nc3ncc(F)c(-c4cc(F)c5nc(C)n(C(C)C)c5c4)n3)nc2)CC1 | 68.2 |
| C=CCn1c(=O)c2cnc(Nc3ccc(N4CCN(C)CC4)cc3)nc2n1-c1cccc(C(C)(C)O)n1 + CCN1CCN(Cc2ccc(Nc3ncc(F)c(-c4cc(F)c5nc(C)n(C(C)C)c5c4)n3)nc2)CC1 | 3.67 |

same assay, conditions: second compound 0.316 µM; first compound 10 µM; hits give low values

| Structure (SMILES) | viability, T/C [%] |
| --- | --- |
| Cn1ncc(Cl)c1-c1cc(C(=O)NC(CN)Cc2cccc(F)c2)sc1Cl (centres undefined) + CC(C)NCC(C(=O)N1CCN(c2ncnc3c2C(C)CC3O)CC1)c1ccc(Cl)cc1 | 0.13 |
| Cn1nccc1Nc1nccc(-c2ccn(C(CO)c3ccc(Cl)c(F)c3)c(=O)c2)n1 (centres undefined) + CC(C)NCC(C(=O)N1CCN(c2ncnc3c2C(C)CC3O)CC1)c1ccc(Cl)cc1 | 0.8 |
| C=CC(=O)N1CCN(c2nc(=O)n(-c3c(C)ccnc3C(C)C)c3nc(-c4c(O)cccc4F)c(F)cc23)C(C)C1 (centres undefined) + CCN1CCN(Cc2ccc(Nc3ncc(F)c(-c4cc(F)c5nc(C)n(C(C)C)c5c4)n3)nc2)CC1 | 29.2 |
| Cn1nccc1Nc1nccc(-c2ccn(C(CO)c3ccc(Cl)c(F)c3)c(=O)c2)n1 (centres undefined) + CCN1CCN(Cc2ccc(Nc3ncc(F)c(-c4cc(F)c5nc(C)n(C(C)C)c5c4)n3)nc2)CC1 | 9.01 |
| C=CCn1c(=O)c2cnc(Nc3ccc(N4CCN(C)CC4)cc3)nc2n1-c1cccc(C(C)(C)O)n1 + CCN1CCN(Cc2ccc(Nc3ncc(F)c(-c4cc(F)c5nc(C)n(C(C)C)c5c4)n3)nc2)CC1 | 2.2 |

same assay, conditions: second compound 1 µM; first compound 0.0316 µM; hits give low values

| Structure (SMILES) | viability, T/C [%] |
| --- | --- |
| Cn1ncc(Cl)c1-c1cc(C(=O)NC(CN)Cc2cccc(F)c2)sc1Cl (centres undefined) + CC(C)NCC(C(=O)N1CCN(c2ncnc3c2C(C)CC3O)CC1)c1ccc(Cl)cc1 | 50.5 |
| Cn1nccc1Nc1nccc(-c2ccn(C(CO)c3ccc(Cl)c(F)c3)c(=O)c2)n1 (centres undefined) + CC(C)NCC(C(=O)N1CCN(c2ncnc3c2C(C)CC3O)CC1)c1ccc(Cl)cc1 | 57.9 |
| C=CC(=O)N1CCN(c2nc(=O)n(-c3c(C)ccnc3C(C)C)c3nc(-c4c(O)cccc4F)c(F)cc23)C(C)C1 (centres undefined) + CCN1CCN(Cc2ccc(Nc3ncc(F)c(-c4cc(F)c5nc(C)n(C(C)C)c5c4)n3)nc2)CC1 | 84.2 |
| Cn1nccc1Nc1nccc(-c2ccn(C(CO)c3ccc(Cl)c(F)c3)c(=O)c2)n1 (centres undefined) + CCN1CCN(Cc2ccc(Nc3ncc(F)c(-c4cc(F)c5nc(C)n(C(C)C)c5c4)n3)nc2)CC1 | 86.5 |
| C=CCn1c(=O)c2cnc(Nc3ccc(N4CCN(C)CC4)cc3)nc2n1-c1cccc(C(C)(C)O)n1 + CCN1CCN(Cc2ccc(Nc3ncc(F)c(-c4cc(F)c5nc(C)n(C(C)C)c5c4)n3)nc2)CC1 | 72.3 |

same assay, conditions: second compound 1 µM; first compound 0.1 µM; hits give low values

| Structure (SMILES) | viability, T/C [%] |
| --- | --- |
| Cn1ncc(Cl)c1-c1cc(C(=O)NC(CN)Cc2cccc(F)c2)sc1Cl (centres undefined) + CC(C)NCC(C(=O)N1CCN(c2ncnc3c2C(C)CC3O)CC1)c1ccc(Cl)cc1 | 50.9 |

From PubChem BioAssay AID2060326 (Molecular Pharmacology Branch, DTP, NCI, 2025)
